Experimental data published in ChEMBL document CHEMBL4043303, “Development of Novel Melanocortin Receptor Agonists Based on the Cyclic Peptide Framework of Sunflower Trypsin Inhibitor-1” (J Med Chem, 2018).

Assay: Solubility of the compound in water at 1 mM
Assay type: physicochemical
Conditions: buffer, 1000 µM

Compound | solubility
CC[C@H](C)[C@@H]1NC(=O)[C@@H]2CCCN2C(=O)[C@@H]2CCCN2C(=O)[C@H]([C@@H](C)CC)NC(=O)[C@H](CO)NC(=O)[C@H](C)NC(=O)[C@H]([C@@H](C)O)NC(=O)[C@@H]2CSSC[C@H](NC1=O)C(=O)N[C@@H](Cc1cnc[nH]1)C(=O)N[C@H](Cc1ccccc1)C(=O)N(C)[C@@H](CCCNC(=N)N)C(=O)N[C@@H](Cc1c[nH]c3ccccc13)C(=O)N[C@@H](CCCNC(=N)N)C(=O)N2 | Soluble
CC[C@H](C)[C@@H]1NC(=O)[C@@H]2CCCN2C(=O)[C@@H]2CCCN2C(=O)[C@H]([C@@H](C)CC)NC(=O)[C@H](CO)NC(=O)[C@H](C)NC(=O)[C@H]([C@@H](C)O)NC(=O)[C@@H]2CSSC[C@H](NC1=O)C(=O)N(C)[C@@H](Cc1cnc[nH]1)C(=O)N[C@H](Cc1ccccc1)C(=O)N[C@@H](CCCNC(=N)N)C(=O)N[C@@H](Cc1c[nH]c3ccccc13)C(=O)N[C@@H](CCCNC(=N)N)C(=O)N2 | Soluble
CC[C@H](C)[C@@H]1NC(=O)[C@@H]2CCCN2C(=O)[C@@H]2CCCN2C(=O)[C@H]([C@@H](C)CC)NC(=O)[C@H](CO)NC(=O)[C@H](C)NC(=O)[C@H]([C@@H](C)O)NC(=O)[C@@H]2CSSC[C@H](NC1=O)C(=O)N[C@@H](Cc1cnc[nH]1)C(=O)N[C@H](Cc1ccccc1)C(=O)N[C@@H](CCCNC(=N)N)C(=O)N(C)[C@@H](Cc1c[nH]c3ccccc13)C(=O)N[C@@H](CCCNC(=N)N)C(=O)N2 | Soluble
CC[C@H](C)[C@@H]1NC(=O)[C@@H]2CCCN2C(=O)[C@@H]2CCCN2C(=O)[C@H]([C@@H](C)CC)NC(=O)[C@H](CO)NC(=O)[C@H](C)NC(=O)[C@H]([C@@H](C)O)NC(=O)[C@@H]2CSSC[C@H](NC1=O)C(=O)N(C)[C@@H](Cc1cnc[nH]1)C(=O)N[C@H](Cc1ccccc1)C(=O)N(C)[C@@H](CCCNC(=N)N)C(=O)N(C)[C@@H](Cc1c[nH]c3ccccc13)C(=O)N[C@@H](CCCNC(=N)N)C(=O)N2 | Soluble
CC[C@H](C)[C@@H]1NC(=O)[C@@H]2CCCN2C(=O)[C@@H]2CCCN2C(=O)[C@H]([C@@H](C)CC)NC(=O)[C@H](CO)NC(=O)[C@H](C)NC(=O)[C@H]([C@@H](C)O)NC(=O)[C@@H]2CSSC[C@H](NC1=O)C(=O)N(C)[C@@H](Cc1cnc[nH]1)C(=O)N[C@H](Cc1ccccc1)C(=O)N(C)[C@@H](CCCNC(=N)N)C(=O)N[C@@H](Cc1c[nH]c3ccccc13)C(=O)N[C@@H](CCCNC(=N)N)C(=O)N2 | Soluble
CC[C@H](C)[C@@H]1NC(=O)[C@@H]2CCCN2C(=O)[C@@H]2CCCN2C(=O)[C@H]([C@@H](C)CC)NC(=O)[C@H](CO)NC(=O)[C@H](C)NC(=O)[C@H]([C@@H](C)O)NC(=O)[C@@H]2CSSC[C@H](NC1=O)C(=O)N[C@@H](Cc1cnc[nH]1)C(=O)N[C@H](Cc1ccccc1)C(=O)N[C@@H](CCCNC(=N)N)C(=O)N[C@@H](Cc1c[nH]c3ccccc13)C(=O)N[C@@H](CCCNC(=N)N)C(=O)N2 | Soluble
CC[C@H](C)[C@@H]1NC(=O)[C@@H]2CCCN2C(=O)[C@@H]2CCCN2C(=O)[C@H]([C@@H](C)CC)NC(=O)[C@H](CO)NC(=O)[C@H](C)NC(=O)[C@H]([C@@H](C)O)NC(=O)[C@@H]2CSSC[C@H](NC1=O)C(=O)N[C@@H](Cc1c[nH]cn1)C(=O)N[C@H](Cc1ccccc1)C(=O)N(C)[C@@H](CCCNC(=N)N)C(=O)N(C)[C@@H](Cc1c[nH]c3ccccc13)C(=O)N[C@@H](CCCNC(=N)N)C(=O)N2 | Soluble
CC[C@H](C)[C@@H]1NC(=O)[C@@H]2CCCN2C(=O)[C@@H]2CCCN2C(=O)[C@H]([C@@H](C)CC)NC(=O)[C@H](CO)NC(=O)[C@H](C)NC(=O)[C@H]([C@@H](C)O)NC(=O)[C@@H]2CSSC[C@H](NC1=O)C(=O)N(C)[C@@H](Cc1cnc[nH]1)C(=O)N[C@H](Cc1ccccc1)C(=O)N[C@@H](CCCNC(=N)N)C(=O)N(C)[C@@H](Cc1c[nH]c3ccccc13)C(=O)N[C@@H](CCCNC(=N)N)C(=O)N2 | Soluble
